PubChem BioAssay AID179 (DTP/NCI, 2004)
Activity calls are given as the source filed them.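 How the source made its calls: active means compounds giving half or more protection of infected cells from virus-caused growth loss, again on retest; inactive means the rest.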 Where a SMILES comes first, the peptide text is derived from it. The star is where a group is joined. Boc = CC(C)(C)OC(=O)*; OBn = c1ccc(CO*)cc1; Bn = c1ccc(C*)cc1

Tested on: CEM cells HIV-1 protection, formazan growth assay
Assay: NCI AIDS Antiviral Assay
Conditions: for IC50: measured here: growth of uninfected CEM cells
In short: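 Steps: treat uninfected and HIV-1-infected human CEM cells at five drug levels; quantify growth by soluble formazan; retest any compound reaching 50% protection; classify actives from the retest.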

SMILES | EC50 [µM] | IC50 [µM] | outcome
CC1=NN(C(=O)Cc2ccccc2)C(=O)/C1=C\c1ccccc1O | > 22.4 | > 22.4 | 
Cc1nc(Nc2nc3ccccc3[nH]2)nc(Cl)c1CCCl |  |  | inactive
O=Cc1cc2c(cc1-c1c(C=O)ccc3c1OCO3)OCO2 | > 63.1 | 33.1 | 
COc1ccc(N2C(=O)C3c4[nH]c5ccccc5c4C4c5ccccc5CC4C3C2=O)cc1 (centres undefined) | > 200 | > 200 | 
S=C(NCCNC(=S)SSC(=S)NNc1ccccc1)SSC(=S)NNc1ccccc1 | > 200 | 17.4 | 
CC(C(=O)NCNC(=O)c1ccccc1)C(=O)NCc1ccccc1 (centres undefined) |  |  | inactive
[O-][n+]1onc2c1-c1nonc1CC2 | > 200 | 26.9 | 
CCC1CC2CN3CCc4c([nH]c5c(-c6c(OC)ccc7c8c([nH]c67)[C@]6(C(=O)OC)CC7CC(CC)C6N(CC8)C7)c(O)ccc45)[C@](C(=O)OC)(C2)C13 (some centres undefined) | > 200 | 12.9 | 
CCCCCCC(c1ccc(O)c(C(=O)O)c1)c1ccc(O)c(C(=O)O)c1 | > 1000 | 166 | 
Cc1ccc(NC(=O)/C(=N\NC(N)=O)c2c(O)c3ccccc3[nH]c2=O)cc1 | > 95.5 | > 95.5 | 
CN1CC(O)C(C(=O)NC23CC4CC(CC(C4)C2)C3)C1 (centres undefined) | > 324 | 234 | 
CN/N=C(/CC(=O)c1sc(-n2nc(-c3ccccc3)cc2-c2ccccc2)nc1C)C(=O)Nc1ccc(Cl)c(Cl)c1 | > 112 | > 112 | 
CC(C)(C)[Si](C)(C)OC[C@H](CO)NC(=O)OCc1ccccc1 | > 200 | 38.9 | 
COc1cc(/C=C(\C)[N+](=O)[O-])cc(OC)c1 | > 200 | 3.39 | 
O=C(NNC(=O)c1ccccc1O)c1ccco1 | > 200 | 32.4 | 
CCC[CH2][Sn]1([CH2]CCC)[N](S(=O)(=O)c2ccc(C)cc2)c2ccccc2[N]1S(=O)(=O)c1ccc(C)cc1 | > 2 | 0.309 | 
COc1ccc(CC2Cc3ccccc3CC(=O)N2)cc1OC (centres undefined) | > 200 | 17.8 | 
Cc1ccc2nccc(/C=C/c3ccc(N(C)C)cc3)c2c1 | > 13.2 | 2.45 | 
CCOP(=O)(OCC)O/N=C/c1cccc(C(F)(F)F)c1 | > 204 | > 204 | 
Clc1cc(Cl)c2c(c1)[nH]c1nc3ccccc3nc12 | > 18.2 | > 18.2 | 
CCC1(CC)SCC(=O)NC1=O | > 200 | > 200 | 

SMILES | EC50 [µM] | IC50 [µM] | outcome
CC(C)CC(NC(=O)C(CCC(=O)OCc1ccccc1)NC(=O)OC(C)(C)C)C(=O)NC(COCc1ccccc1)C(=O)NC(Cc1ccccc1)C(=O)O (centres undefined) (Boc-E(OBn)LS(Bn)F-OH; configuration not given here) | > 200 | > 200 | 
Cc1ccc(/C=N/NS(=O)(=O)c2ccccc2)cc1 |  |  | inactive
CC(C)[C@@H](C)/C=C/[C@@H](C)C1CC2C3=CC=C4C[C@@H](OC5OCC(O)C6OC(=O)C(=O)OC56)CC[C@]4(C)C3CC[C@]2(C)C1 (some centres undefined) | > 200 | 11 | 
O=C1C=C(O)c2ccccc2C1=O | > 200 | 120 | 
CCCCc1ccc(OC2OC(CO)C(O)C(O)C2O)cc1 (centres undefined) | > 288 |  | 
O=C1NC(=O)C(CC(C(=O)C(=O)Nc2ccccc2Cl)C(=O)c2ccc3ccccc3c2)C(=O)N1 (centres undefined) | > 38 | > 38 | 
N#CCCN(c1ccc(-c2nnc(NC(=O)CNNC(=O)CC(=O)Nc3ccccc3)s2)cc1)S(=O)(=O)c1ccccc1 | > 41.7 | > 41.7 | 
CC12CCC(=O)N1c1ccc([N+](=O)[O-])cc1N2 (centres undefined) |  |  | inactive
CC(=N/NC(=S)N1CCCCC1)/C(=N\NC(=S)N1CCCCC1)c1ccccc1 | > 200 | 3.55 | 
c1ccc2c(c1)C1=NCCN1c1ccccc1-2 | > 309 | 1.86 | 
O=[N+]([O-])c1cc(S(=O)(=O)c2ccc(Cl)c([N+](=O)[O-])c2)ccc1Cl | > 200 | 2.34 | 
C/C(CC(=O)Nc1ccc([N+](=O)[O-])cc1)=N/N=C(N)N | > 67.6 | > 67.6 | 
COC(=O)C12CCC(=O)N1CC(=O)c1c2[nH]c2ccccc12 (centres undefined) |  |  | inactive
O=c1ccn(C2OC(CN(O)CCC3C(O)C(CO)OC3n3ccc(=O)[nH]c3=O)C(O)C2O)c(=O)[nH]1 (centres undefined) | > 200 | > 200 | 
CC(C)C1OC23CCCCC2C(C#N)(C#N)C1(C#N)C(=N)O3 (centres undefined) | > 200 | 5.89 | 
O=C1C(c2ccccc2)=[N+]([O-])c2ccc(Cl)cc21 |  |  | inactive
O=C(N/S(=N/S(=O)(=O)c1ccc(Br)cc1)C(Cl)(Cl)Cl)c1ccccc1 (centres undefined) | > 200 | > 200 | 
NCCCCC(=O)NC(CCCCNC(=O)OCc1ccccc1)C(=O)NCCCCC(=O)NC(CCCCNC(=O)OCc1ccccc1)C(=O)NCCCCC(=O)NC(CCCCNC(=O)OCc1ccccc1)C(=O)NCCCCC(=O)NC(CCCCNC(=O)OCc1ccccc1)C(=O)NCCCCC(=O)NC(CCCCNC(=O)OCc1ccccc1)C(=O)NCCCCC(=O)NC(CCCCNC(=O)OCc1ccccc1)C(=O)NCCCCC(=O)NC(CCCCNC(=O)OCc1ccccc1)C(=O)O (centres undefined) | > 7.08 | > 7.08 | 
O=C1C=CC2C3C(=O)N(c4ccccc4)C(=O)C3C1N2Cc1ccccc1 (centres undefined) | > 1.17 | > 1.17 | 
N#C/C(=C\c1ccc(O)c(O)c1)C(=O)NCCCCCNC(=O)/C(C#N)=C/c1ccc(O)c(O)c1 | > 200 | 11.5 | 
CN=C(Nn1cnnc1)OC | > 200 | > 200 | 

SMILES | EC50 [µM] | IC50 [µM] | outcome
C[C@H](c1ccccc1)N1C(=O)[C@@H](O)[C@H]1[C@H](CO)OCc1ccccc1 | > 200 | > 200 | 
C=C1C(=O)O[C@@H]2[C@H]1CC[C@H](C)[C@@H]1CCC(=O)[C@@]21C | > 200 | 3.39 | 
CCCN(CC)C(=O)COc1cc2c(O)c3c(O)c(C)c4c(c13)C(=O)C(C)(O/C=C/C(OC)C(C)C(OC(C)=O)C(C)C(O)C(C)C(O)C(C)/C=C/C=C(\C)C(=O)N2)O4 (centres undefined) | > 200 | 12.9 | 
COC1=C(N)C(=O)c2nc(C)ccc2C1=O |  |  | inactive
Cc1cc(-c2ccc(N=Nc3c(S(=O)(=O)O)cc4cc(S(=O)(=O)O)cc(N)c4c3O)c(C)c2)ccc1N=Nc1cc(S(=O)(=O)O)c2ccccc2c1O |  |  | inactive
O=C(Cc1nc2ccccc2s1)C(=O)Nc1ccc(Cl)cc1 |  |  | inactive
O=S1OC[C@H](CCCl)O1 (some centres undefined) | > 200 | > 200 | 
COC(=O)[C@H](Cc1ccc(OC(C)(C)C)cc1)N[C@H](C)C(=O)N[C@@H](Cc1ccccc1)C(=O)OCc1ccccc1 | > 200 | 27.5 | 
CCCC[N+](CCCC)=c1cc(-c2ccc(Cl)cc2)ss1 | > 20 | 0.708 | 
Cc1ccc2c(c1)CC1(Cc3ccccc3C1=O)C2=O (centres undefined) | > 200 | 195 | 
Oc1ccc(Cc2nc3ccccc3[nH]2)cc1 | > 200 | > 200 | 
O=C(OCCN1CCCCC1)c1cc2ccccc2n1Cc1ccccc1 | > 200 | 30.2 | 
CCCCCCCC/C=C\CCCCCCCC(=O)NCCN(CCN)C(=O)CCCCCCC/C=C\CCCCCCCC | > 25.1 | > 25.1 | 
O=C(Nc1ccc(Cl)cc1)Nc1cccc2nsnc12 | > 32.4 | 20.4 | 
CCOC(=O)C1C/C(C)=C(/C)SCCCS1 (centres undefined) | > 200 | 45.7 | 
CSc1cnnc2ccccc12 | > 603 | 263 | 
CCc1c(Cc2[nH]c(Cc3[nH]c(C=O)c(C)c3CC)c(CC)c2CC)[nH]c(C=O)c1C | > 200 | > 200 | 
COc1cc2c(cc1OC)C1c3ccccc3CCN1CCC2 (centres undefined) | > 200 | > 200 | 
COc1ccccc1NC(=O)/C(=C/n1c(=S)[nH]c2cc(C)ccc21)C(C)=O | > 200 | 151 | 
CCCCCCc1nn2c(-c3ccncc3)nnc2s1 | > 100 | 52.5 | 
C/C(=C(/SS/C(C(=O)O)=C(/C)c1cccc(O)c1)C(=O)O)c1cccc(O)c1 | > 200 | 135 | 

SMILES | EC50 [µM] | IC50 [µM] | outcome
CC(=O)ONC(=O)CSc1nn2cc(-c3ccccc3)nc2s1 | 186 | > 200 | 
N#CCCN(CCC#N)c1ccc(C(=O)NN)cc1 | > 363 | 288 | 
N#Cc1sc2c(c1OC(=O)c1ccc(C(F)(F)F)cc1)c(=O)n(-c1ccccc1)c(=S)n2-c1ccccc1 | > 200 | 2.24 | 
CCCC(Sc1ccccc1)P(=O)(c1ccccc1)c1ccccc1 (centres undefined) |  |  | inactive
CCOP(=O)(OCC)C1CCCOC1=O (centres undefined) |  |  | inactive
Cc1cn(C2CC(O)C(COC(=O)CCCCCCCCCCBr)O2)c(=O)[nH]c1=O (centres undefined) | > 102 | 53.7 | 
OCc1nnn(-c2ccccc2)c1CO | > 200 | > 200 | 
CCN(CC)C1C2=C(CCCC2)OS(=O)(=O)C1c1ccccc1 (centres undefined) | > 40.7 | > 40.7 | 
C#CC1(O)C(/C=N/O)OC(n2ccc(=O)[nH]c2=O)C1O[Si](C)(C)C(C)(C)C (centres undefined) | > 200 | 72.4 | 
CC(C)(C)C1=C(Br)C(C(C)(C)C)OP1(=O)O (centres undefined) | > 100 | > 100 | 
COc1ccc(-n2cnnc2-c2nsc3ccccc23)cc1 | > 85.1 | 55 | 
O=C1c2c(O)ccc([N+](=O)[O-])c2C(=O)c2c(O)ccc(Nc3cccc(CO)c3)c21 | > 200 | 0.724 | 
C[N+]12C=CC=C1C(N1CCCC1)c1scc(-c3ccccc3)c12 (centres undefined) | > 200 | 17.8 | 
O=c1[nH]nc(Cc2ccccc2)n1/N=C/c1cccnc1 | 56.2 | > 200 | 
Nc1nc2ncc(CNc3ccc(C(=O)NC(CCC(=O)NC(CCC(=O)NC(CCC(=O)NC(CCC(=O)NC(CCC(=O)O)C(=O)O)C(=O)O)C(=O)O)C(=O)O)C(=O)O)cc3)nc2c(=O)[nH]1 (centres undefined) | > 100 | > 100 | 
Cc1ccc(C(=O)c2ccccc2C(=O)O)cc1C | > 200 | > 200 | 
Cc1ccc(-c2cc(=S)ss2)cc1 | > 200 | 166 | 
OC[C@@H]1C[C@H](F)[C@H](n2cnc3c(Cl)ncnc32)O1 | > 575 | 26.3 | 
O=C(c1ccccc1)C(c1ccccc1)C1(O)C(=O)Nc2ccc(Br)cc21 (centres undefined) | > 85.1 | > 85.1 | 
CC1(C)C(=O)C(=Cc2ccco2)C1=O | > 100 | > 100 | 
